Laboratory results: PubChem BioAssay (NCI)
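Test compounds were applied to cells in 96-well plates for 48 hours at 5 doses. Here, GI50 denotes the concentration required for 50% inhibition of growth. TGI: concentration producing complete growth inhibition.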

What was measured:
Assay in all cases: NCI tumour cell line growth inhibition, 48 h
UACC-257 melanoma = tested on: UACC-257 melanoma
TK-10 renal = tested on: TK-10 renal
U251 CNS = tested on: U251 CNS
MDA-MB-231 breast = tested on: MDA-MB-231 breast
MDA-MB-435 = tested on: MDA-MB-435
HOP-62 NSCLC = tested on: HOP-62 NSCLC
MALME-3M melanoma = tested on: MALME-3M melanoma
IGROV1 ovarian = tested on: IGROV1 ovarian
SNB-19 CNS = tested on: SNB-19 CNS
HCT-15 colon = tested on: HCT-15 colon
BT-549 breast = tested on: BT-549 breast
T-47D breast = tested on: T-47D breast
NCI-H226 lung = tested on: NCI-H226 lung
SK-MEL-2 melanoma = tested on: SK-MEL-2 melanoma
HCC-2998 colon = tested on: HCC-2998 colon
SR leukemia = tested on: SR leukemia
DU-145 prostate = tested on: DU-145 prostate
OVCAR-4 ovarian = tested on: OVCAR-4 ovarian
EKVX NSCLC = tested on: EKVX NSCLC
MCF7 breast = tested on: MCF7 breast
NCI-H460 lung = tested on: NCI-H460 lung
A549 NSCLC = tested on: A549 NSCLC
PC-3 prostate = tested on: PC-3 prostate
OVCAR-5 ovarian = tested on: OVCAR-5 ovarian
CCRF-CEM leukemia = tested on: CCRF-CEM leukemia
SNB-75 CNS = tested on: SNB-75 CNS
RPMI-8226 leukemia = tested on: RPMI-8226 leukemia
K-562 leukemia = tested on: K-562 leukemia
HS 578T breast = tested on: HS 578T breast
OVCAR-8 ovarian = tested on: OVCAR-8 ovarian
SF-295 CNS = tested on: SF-295 CNS
UACC-62 melanoma = tested on: UACC-62 melanoma
RXF 393 renal = tested on: RXF 393 renal
UO-31 renal = tested on: UO-31 renal
HL-60(TB) leukemia = tested on: HL-60(TB) leukemia
SK-MEL-5 melanoma = tested on: SK-MEL-5 melanoma
HOP-92 NSCLC = tested on: HOP-92 NSCLC
NCI-H522 lung = tested on: NCI-H522 lung
NCI/ADR-RES ovarian = tested on: NCI/ADR-RES ovarian
A498 renal = tested on: A498 renal
MOLT-4 leukemia = tested on: MOLT-4 leukemia
NCI-H23 lung = tested on: NCI-H23 lung
M14 melanoma = tested on: M14 melanoma
OVCAR-3 ovarian = tested on: OVCAR-3 ovarian
SW-620 colon = tested on: SW-620 colon
SK-MEL-28 melanoma = tested on: SK-MEL-28 melanoma
SN12C renal = tested on: SN12C renal
ACHN renal = tested on: ACHN renal
SK-OV-3 ovarian = tested on: SK-OV-3 ovarian
LOX IMVI melanoma = tested on: LOX IMVI melanoma
KM12 colon = tested on: KM12 colon
COLO 205 colon = tested on: COLO 205 colon
SF-268 CNS = tested on: SF-268 CNS
HT29 colon = tested on: HT29 colon
SF-539 CNS = tested on: SF-539 CNS
CAKI-1 renal = tested on: CAKI-1 renal
786-0 renal = tested on: 786-0 renal
HCT-116 colon = tested on: HCT-116 colon

Compound: CCO/C=N/C1=C(C#N)C(c2ccc(F)cc2)c2sc3c(CC)cccc3c2O1 (stereo unspecified)
- GI50 (UACC-257 melanoma): 12700 nM
- TGI (UACC-257 melanoma): 31300 nM
- GI50 (TK-10 renal): 8080 nM
- TGI (TK-10 renal): 24000 nM
- GI50 (U251 CNS): 468 nM
- TGI (U251 CNS): 11800 nM
- GI50 (MDA-MB-231 breast): 664 nM
- TGI (MDA-MB-231 breast): 14300 nM
- GI50 (MDA-MB-435): 160 nM
- TGI (MDA-MB-435): 446 nM
- GI50 (HOP-62 NSCLC): 453 nM
- TGI (HOP-62 NSCLC): 17600 nM
- GI50 (MALME-3M melanoma): 542 nM
- TGI (MALME-3M melanoma): 23800 nM
- GI50 (IGROV1 ovarian): 401 nM
- TGI (IGROV1 ovarian): 14100 nM
- GI50 (SNB-19 CNS): 466 nM
- TGI (SNB-19 CNS): 15800 nM
- GI50 (HCT-15 colon): 389 nM
- TGI (HCT-15 colon): 10900 nM
- GI50 (BT-549 breast): 1690 nM
- TGI (BT-549 breast): 8530 nM
- GI50 (T-47D breast): 440 nM
- TGI (T-47D breast): 26500 nM
- GI50 (NCI-H226 lung): 1030 nM
- TGI (NCI-H226 lung): 11600 nM
- GI50 (SK-MEL-2 melanoma): 597 nM
- TGI (SK-MEL-2 melanoma): 21500 nM
- GI50 (HCC-2998 colon): 641 nM
- TGI (HCC-2998 colon): 6650 nM
- GI50 (SR leukemia): 451 nM
- TGI (SR leukemia): 14900 nM
- GI50 (DU-145 prostate): 401 nM
- TGI (DU-145 prostate): 13000 nM
- GI50 (OVCAR-4 ovarian): 1570 nM
- TGI (OVCAR-4 ovarian): 17800 nM
- GI50 (EKVX NSCLC): 488 nM
- TGI (EKVX NSCLC): 16700 nM
- GI50 (MCF7 breast): 361 nM
- TGI (MCF7 breast): 12500 nM
- GI50 (NCI-H460 lung): 379 nM
- TGI (NCI-H460 lung): 5260 nM
- GI50 (A549 NSCLC): 518 nM
- TGI (A549 NSCLC): 14200 nM
- GI50 (PC-3 prostate): 236 nM
- TGI (PC-3 prostate): 11400 nM
- GI50 (OVCAR-5 ovarian): 670 nM
- TGI (OVCAR-5 ovarian): 14600 nM
- GI50 (CCRF-CEM leukemia): 282 nM
- TGI (CCRF-CEM leukemia): 6320 nM
- GI50 (SNB-75 CNS): 206 nM
- TGI (SNB-75 CNS): 2830 nM
- GI50 (RPMI-8226 leukemia): 331 nM
- TGI (RPMI-8226 leukemia): 5520 nM
- GI50 (K-562 leukemia): 292 nM
- TGI (K-562 leukemia): 13600 nM
- GI50 (HS 578T breast): 385 nM
- TGI (HS 578T breast): 13000 nM
- GI50 (OVCAR-8 ovarian): 508 nM
- TGI (OVCAR-8 ovarian): 15300 nM
- GI50 (SF-295 CNS): 270 nM
- TGI (SF-295 CNS): 2600 nM
- GI50 (UACC-62 melanoma): 371 nM
- TGI (UACC-62 melanoma): 17600 nM
- GI50 (RXF 393 renal): 177 nM
- TGI (RXF 393 renal): 531 nM
- GI50 (UO-31 renal): 637 nM
- TGI (UO-31 renal): 17000 nM
- GI50 (HL-60(TB) leukemia): 337 nM
- TGI (HL-60(TB) leukemia): 5250 nM
- GI50 (SK-MEL-5 melanoma): 482 nM
- TGI (SK-MEL-5 melanoma): 11400 nM
- GI50 (HOP-92 NSCLC): 193 nM
- TGI (HOP-92 NSCLC): 6120 nM
- GI50 (NCI-H522 lung): 209 nM
- TGI (NCI-H522 lung): 5610 nM
- GI50 (NCI/ADR-RES ovarian): 226 nM
- TGI (NCI/ADR-RES ovarian): 3660 nM
- GI50 (A498 renal): 199 nM
- TGI (A498 renal): 897 nM
- GI50 (MOLT-4 leukemia): 629 nM
- TGI (MOLT-4 leukemia): 13400 nM
- GI50 (NCI-H23 lung): 763 nM
- TGI (NCI-H23 lung): 14400 nM
- GI50 (M14 melanoma): 292 nM
- TGI (M14 melanoma): 12800 nM
- GI50 (OVCAR-3 ovarian): 454 nM
- TGI (OVCAR-3 ovarian): 13000 nM
- GI50 (SW-620 colon): 478 nM
- TGI (SW-620 colon): 13400 nM
- GI50 (SK-MEL-28 melanoma): 1280 nM
- TGI (SK-MEL-28 melanoma): 19700 nM
- GI50 (SN12C renal): 609 nM
- TGI (SN12C renal): 12800 nM
- GI50 (ACHN renal): 711 nM
- TGI (ACHN renal): 14100 nM
- GI50 (SK-OV-3 ovarian): 812 nM
- TGI (SK-OV-3 ovarian): 21600 nM
- GI50 (LOX IMVI melanoma): 732 nM
- TGI (LOX IMVI melanoma): 11100 nM
- GI50 (KM12 colon): 384 nM
- TGI (KM12 colon): 13500 nM
- GI50 (COLO 205 colon): 400 nM
- TGI (COLO 205 colon): 2840 nM
- GI50 (SF-268 CNS): 2030 nM
- TGI (SF-268 CNS): 17400 nM
- GI50 (HT29 colon): 351 nM
- TGI (HT29 colon): 11200 nM
- GI50 (SF-539 CNS): 280 nM
- TGI (SF-539 CNS): 1230 nM
- GI50 (CAKI-1 renal): 359 nM
- TGI (CAKI-1 renal): 17100 nM
- GI50 (786-0 renal): 651 nM
- TGI (786-0 renal): 13200 nM
- GI50 (HCT-116 colon): 395 nM
- TGI (HCT-116 colon): 11200 nM
